According to patent US5703072A, “Bicyclic nonane and decane compounds having dopamine receptor affinity” (Allelix Biopharmaceuticals, priority 1996, dated 1997):

What was measured:
[1] = target: T1, human D4 receptor (D4.2 sub-type) (Homo sapiens, UniProt P21917, DEL265-296); test: D4 receptor binding: displacement of 3H-spiperone; settings: D4 affinity; 3H-spiperone displacement
T1 construct: expressed in transfected cells; host or cells: HEK 298 (human embryonic kidney) cells (so in the source); homogenate of stably transfected cells
T1 sequence (P21917 with tags, fused parts or gaps DEL265-296): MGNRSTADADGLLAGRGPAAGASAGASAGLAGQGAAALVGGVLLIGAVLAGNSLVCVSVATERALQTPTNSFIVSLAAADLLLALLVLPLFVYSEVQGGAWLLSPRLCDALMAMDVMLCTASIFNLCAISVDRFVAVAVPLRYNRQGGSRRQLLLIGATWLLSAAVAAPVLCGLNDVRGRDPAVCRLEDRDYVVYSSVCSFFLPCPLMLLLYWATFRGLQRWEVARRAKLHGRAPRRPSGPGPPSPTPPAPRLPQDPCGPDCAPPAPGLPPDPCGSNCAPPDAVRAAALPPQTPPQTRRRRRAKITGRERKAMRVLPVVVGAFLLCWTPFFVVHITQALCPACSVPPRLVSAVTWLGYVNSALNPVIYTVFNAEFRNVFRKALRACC
Protocol: (§1) The potency of the test compound to reduce ^3 H-spiperone binding directly correlated to its binding affinity for the receptor.
The cells were then centrifuged in a Sorval centrifuge for 10 min, 5000 rpm (GS3 rotor) and the pellets quickly frozen in liquid nitrogen and stored at -80° C. until used in binding assay. When used in the assay, cells were thawed on ice for 20 min and then 1 mL of incubation buffer (50 mM Tris, 1 mM EDTA, 4 mM MgCl2, 5 mM KCl, 1.5 mM CaCl2, 120 mM NaCl, pH7.4) was added. […] Concentration of receptor protein was determined using the Pierce BCA assay.
(§2) The tubes were vortexed and incubated at room temperature for 90 minutes. The binding reaction was stopped by filtering using a Brandell Cell Harvester. The samples were filtered under vacuum over glass fibre filters (Whatman GF/B) presoaked for 2 hours in 0.3% polyethylenimine (PEI) in 50 mM Tris buffer (pH 7.4). The filters were then washed 3 times with 5 ml ice cold 50 mM Tris buffer (pH 7.4). Individual filter disks were put in scintillation vials (Biovials, Bechman). Ready Protein Plus liquid scintillant (5 ml, Beckman) was added and the vials counted by liquid scintillation spectrophotometry (Beckman LSC 6500) after equilibrating for three hours at room temperature to determine total binding (BT).
The tubes were vortexed and incubated at room temperature for 90 minutes at which time the binding reaction was stopped by filtering. The filters were washed and counted using the same procedure as in the total binding assay described above to give the non-specific binding value (NSB).
(§3) The incubation was started by the addition to 12×75 mm polypropylene tubes 500 μl (50 μg protein) membrane homogenate to a solution of 400 μl incubation buffer, 100 μl ([…].) ^3 H-spiperone (90 Ci/mmol, Amersham, diluted in borosilicate glass vial to) and 500 μl of test compound that was prepared from 1 mM stock dissolved in DMSO and stored at -20° C. in polypropylene cryogenic storage vials until dilution in incubation buffer in borosilicate glass vials. The tubes were vortexed and incubated at room temperature for 90 minutes at which time the binding reaction was stopped by filtering. The filters were washed and counted using the same procedure as in the total binding assay described above to give the displacement binding value (BD).
(§4) IC50 was determined from an inhibition response curve, logit-log plot of %B/B0 vs concentration of test compound.
(§5) Ki was calculated by the Cheng and Prustoff transformation: Ki=IC50 /(1+[L]/KD) where [L] is the concentration of ^3 H-spiperone used in the assay and KD is the dissociation constant of ^3 H-spiperone determined independently under the same binding conditions.

[2] = target: T2, human D2 receptor (short isoform) (Homo sapiens, UniProt P14416); test: D2 receptor binding (displacement of 3H-spiperone) relative to D4: D2/D4 selectivity; settings: D2/D4 ratio
T2 construct: 3H-spiperone displacement
T2 sequence (P14416 with tags, fused parts or gaps DEL242-270): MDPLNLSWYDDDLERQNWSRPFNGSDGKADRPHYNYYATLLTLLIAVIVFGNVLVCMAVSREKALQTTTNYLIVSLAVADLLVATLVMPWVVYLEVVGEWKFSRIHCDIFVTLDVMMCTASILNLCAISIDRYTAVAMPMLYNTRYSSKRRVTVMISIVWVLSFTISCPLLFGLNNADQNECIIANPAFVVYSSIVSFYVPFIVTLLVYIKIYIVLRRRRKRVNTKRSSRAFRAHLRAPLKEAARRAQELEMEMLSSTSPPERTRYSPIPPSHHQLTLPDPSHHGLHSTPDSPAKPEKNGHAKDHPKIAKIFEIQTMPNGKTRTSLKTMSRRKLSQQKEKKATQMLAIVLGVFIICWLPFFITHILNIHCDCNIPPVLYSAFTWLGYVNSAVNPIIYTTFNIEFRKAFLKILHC
Protocol: as §1
GH4 C1 (rat pituitary) cells stably transfected with the human D2 receptor (short isoform) were grown in CO2 independent media in roller bottles (1500 cm^2) for 10 days. 100 μM ZnSO4 was added to the cells (the D2 promoter being zinc inducible). After 16 hours, fresh media was added to allow the cells to recover for 24 hours. The cells were harvested using versine and then centrifuged in a Sorval centrifuge for 10 minutes, at 5000 rpm (GS3 rotor). Pellets were quickly frozen in liquid nitrogen and stored at -80° C. until used in the binding assays. When used in the assay, cells were thawed on ice for 20 minutes. […] The receptor protein concentration was determined using the Pierce BCA assay.
as §2
This assay employed the same procedures as the non-specific binding assay for D4 with the exception that 2 μM (final conc.) of (-) sulpiride (Research Chemicals Inc.) was used in place of dopamine.
as §3, §4, §5

[3] = target: T3, human D4 receptors (Homo sapiens, UniProt P21917); test: Antagonist assay: reversal of dopamine inhibition of forskolin-stimulated adenyl cyclase (cAMP) in CHO Pro 5 cells; format: cell-based; settings: dopamine and forskolin both 10 μM; for inhibition at 1 µM: test compound 1 μM, read-out: % REVERSAL OF DOPAMINE EFFECT, 1 μM; for inhibition at 10 µM: test compound 10 μM, read-out: % REVERSAL OF DOPAMINE EFFECT, 10 μM
T3 construct: expressed in transfected cells; host or cells: CHO Pro 5 cells, stably expressing
T3 sequence (P21917 1-419): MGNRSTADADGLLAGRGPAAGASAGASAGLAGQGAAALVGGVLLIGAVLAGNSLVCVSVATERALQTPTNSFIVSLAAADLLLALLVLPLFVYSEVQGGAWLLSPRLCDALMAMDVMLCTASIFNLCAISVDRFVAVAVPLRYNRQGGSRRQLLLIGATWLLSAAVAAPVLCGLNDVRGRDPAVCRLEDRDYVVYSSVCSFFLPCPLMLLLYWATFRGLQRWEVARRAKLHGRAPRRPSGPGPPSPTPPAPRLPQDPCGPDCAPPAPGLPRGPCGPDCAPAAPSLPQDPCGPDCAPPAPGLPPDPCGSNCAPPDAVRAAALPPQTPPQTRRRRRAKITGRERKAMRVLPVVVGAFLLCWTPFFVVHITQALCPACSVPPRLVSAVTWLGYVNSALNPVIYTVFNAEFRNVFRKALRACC
Protocol: The D4 receptor responds to dopamine and other agonists by reducing adenyl cyclase mediated production of cyclic AMP. Particular test compounds were assayed for their ability to reverse dopamine inhibition of adenyl cyclase by the following procedure. Forskolin was used to elevate the basal adenyl cyclase activity.
CHO Pro 5 cells stably expressing human D4 receptors were plated in 6 well plates in DMEM (Dulbecco's Modified Eagle Medium)/F12(Nutrient Mixture F12 (Ham)) media with 10% FCS (fetal calf serum) and G418 (Geneticen Disulfate), and incubated at 37° C. in a CO2 incubator. The cells were allowed to grow to about 70% confluence before use in the assay.
The culture media of each well was removed by aspiration, and the wells were washed once with serum free media (SFM) (DMEM/F12) media. Then 2 mL of fresh SFM+IBMX media (SFM with 0.5 mM IBMX (3-isobutyl-1-methylxanthine0.1% ascorbic acid and 10 μM pargyline) was added to each well and then incubated at 37° C. for 10 minutes in CO2 incubator. Following incubation, SFM+IBMX media was aspirated and fresh SFM+IBMX media was added to wells separately with one of a) forskolin (10 μM final conc.); b) dopamine and forskolin (both 10 μM final conc.); […]), and dopamine and forskolin (both 10 μM final conc.). Basal adenyl cyclase activity was determined from wells with only SFM+IBMX media added.
The cells were then incubated at 37° C. for 30 minutes in a CO2 incubator. Following incubation the media was aspirated from each well and then washed once with 2 mL of PBS (phosphate buffered saline). […] The cells from each well were then scraped and transferred into individual Eppendorf tubes. The tubes were centrifuged for 5 min at 4° C., and the supernatants were transferred to new Eppendorf tubes. The pellets were discarded and the supernatants dried using a SpeedVac. The extracts were then reconstituted in 600 μL of 0.1M sodium acetate buffer, pH 6.1, and stored at 4° C. until assayed for cAMP concentration. cAMP content measured in fmoles/well for each extract was determined by EIA (enzyme-immunoassay) using Amersham Biotrak cAMP EIA kit (Amersham RPN 225).
Total inhibition (I0) of forskolin-stimulated adenyl cyclase activity by dopamine was determined as the difference in concentration of cAMP in the forskolin-treated cells (Cf) and dopamine-forskolin treated cells (Cd).
Net inhibition (I) of forskolin-stimulated adenyl cyclase activity by dopamine in the presence of an antagonist was determined as the difference in concentration of cAMP in the forskolin-treated cells (Cf) and test compound, dopamine and forskolin treated cells (C).

[4] = target: D4 receptor; settings: D4 affinity of currently marketed products; cited from earlier work
[5] = system: D4 receptor relative to the D2 receptor; settings: currently marketed products; cited from earlier work

Row | SMILES | Ki [1] [nM] | D2/D4 [2] | inhibition at 1 µM [3] [%] | inhibition at 10 µM [3] [%] | Ki [4] [nM] | preference for binding the D4 receptor relative to the D2 receptor [5]
1 | Clc1ccc2c(c1)N=C(N1CCN3CCCCC3C1)c1ccccc1O2 (racemic) [8-chloro-11-[(R,S)-1,4-diazabicyclo[4.4.0]decan-4-yl]-dibenzo[b,f]-1,4-oxazepine] | 15.7 | 6.8 |  |  |  | 
2 | Clc1ccc2c(c1)N=C(N1CCN3C[C@@H](OCc4ccccc4)C[C@H]3C1)c1ccccc1O2 [8-chloro-11-[(6S,8S)-8-benzyloxy-1,4-diazabicyclo[4.3.0]non-4-yl]-dibenzo[b,f]-1,4-oxazepine] | 24 | 25.6 |  |  |  | 
3 | O[C@H]1C[C@H]2CN(C3=Nc4cc(Cl)ccc4Oc4ccccc43)CCN2C1 [8-chloro-11-[(6S,8S)-8-hydroxy-1,4-diazabicyclo[4.3.0]non-4-yl]-dibenzo[b,f]-1,4-oxazepine] | 28 | 18.2 |  |  |  | 
4 | Clc1ccc2c(c1)N=C(N1CCN3CCC[C@@H]3C1)c1ccccc1O2 [8-chloro-11-[(R)-1,4-diazabicyclo[4.3.0]non-4-yl]-dibenzo[b,f]-1,4-oxazepine] | 18 | 32.2 |  |  |  | 
5 | Clc1ccc2c(c1)N=C(N1CCN3CCCC[C@@H]3C1)c1ccccc1O2 [8-chloro-11-[(R)-1,4-diazabicyclo[4.4.0]decan-4-yl]-dibenzo[b,f]-1,4-oxazepine] | 402 | 4.1 |  |  |  | 
6 | Clc1ccc2c(c1)N=C(N1CCN3CCC[C@H]3C1)c1ccccc1O2 [8-chloro-11-[(S)-1,4-diazabicyclo[4.3.0]non-4-yl]-dibenzo[b,f]-1,4-oxazepine] | 1.2 | 104.5 | 23 | 48 |  | 
7 | Clc1ccc2c(c1)N=C(N1CCN3CCCC[C@H]3C1)c1ccccc1O2 [8-chloro-11-[(S)-1,4-diazabicyclo[4.4.0]decan-4-yl]-dibenzo[b,f]-1,4-oxazepine] | 1 | 40 | 52 | 93 |  | 
8 | CN1CCN(C2=Nc3cc(Cl)ccc3Oc3ccccc32)CC1 [isoloxapine] |  |  |  |  | ~20 | about 10 fold
